From patent US11407767B2, “Heterocyclyl substituted pyrrolopyridines that are inhibitors of the CDK12 kinase” (The University of Nottingham, priority 2017, dated 2022)

Target: CDK12/CycK (Homo sapiens, UniProt Q9NYV4)
Experiment: Inhibition of CDK12 (ADP-Glo kinase assay)
Assay type: biochemical
Settings: 60 nM CDK12/CycK, 30 minutes pre-incubation, 1 μM ATP, 0.5 μM RBER-IRStide substrate, 1 h at 25° C., read-out: CDK12/cyclin K IC50
Procedure, shortened: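 ADP-Glo luminescence read after a 1 h, 25 °C reaction with 1 μM ATP and 0.5 μM RBER-IRStide peptide. Enzyme (60 nM) and compound were first pre-incubated 30 min; buffer 50 mM HEPES pH 7.5, 20 mM MgCl2, 3 mM MnCl2, 1% DMSO. IC50 fitted after blank subtraction.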

CDK12/CycK, sequence (Q9NYV4 whole entry): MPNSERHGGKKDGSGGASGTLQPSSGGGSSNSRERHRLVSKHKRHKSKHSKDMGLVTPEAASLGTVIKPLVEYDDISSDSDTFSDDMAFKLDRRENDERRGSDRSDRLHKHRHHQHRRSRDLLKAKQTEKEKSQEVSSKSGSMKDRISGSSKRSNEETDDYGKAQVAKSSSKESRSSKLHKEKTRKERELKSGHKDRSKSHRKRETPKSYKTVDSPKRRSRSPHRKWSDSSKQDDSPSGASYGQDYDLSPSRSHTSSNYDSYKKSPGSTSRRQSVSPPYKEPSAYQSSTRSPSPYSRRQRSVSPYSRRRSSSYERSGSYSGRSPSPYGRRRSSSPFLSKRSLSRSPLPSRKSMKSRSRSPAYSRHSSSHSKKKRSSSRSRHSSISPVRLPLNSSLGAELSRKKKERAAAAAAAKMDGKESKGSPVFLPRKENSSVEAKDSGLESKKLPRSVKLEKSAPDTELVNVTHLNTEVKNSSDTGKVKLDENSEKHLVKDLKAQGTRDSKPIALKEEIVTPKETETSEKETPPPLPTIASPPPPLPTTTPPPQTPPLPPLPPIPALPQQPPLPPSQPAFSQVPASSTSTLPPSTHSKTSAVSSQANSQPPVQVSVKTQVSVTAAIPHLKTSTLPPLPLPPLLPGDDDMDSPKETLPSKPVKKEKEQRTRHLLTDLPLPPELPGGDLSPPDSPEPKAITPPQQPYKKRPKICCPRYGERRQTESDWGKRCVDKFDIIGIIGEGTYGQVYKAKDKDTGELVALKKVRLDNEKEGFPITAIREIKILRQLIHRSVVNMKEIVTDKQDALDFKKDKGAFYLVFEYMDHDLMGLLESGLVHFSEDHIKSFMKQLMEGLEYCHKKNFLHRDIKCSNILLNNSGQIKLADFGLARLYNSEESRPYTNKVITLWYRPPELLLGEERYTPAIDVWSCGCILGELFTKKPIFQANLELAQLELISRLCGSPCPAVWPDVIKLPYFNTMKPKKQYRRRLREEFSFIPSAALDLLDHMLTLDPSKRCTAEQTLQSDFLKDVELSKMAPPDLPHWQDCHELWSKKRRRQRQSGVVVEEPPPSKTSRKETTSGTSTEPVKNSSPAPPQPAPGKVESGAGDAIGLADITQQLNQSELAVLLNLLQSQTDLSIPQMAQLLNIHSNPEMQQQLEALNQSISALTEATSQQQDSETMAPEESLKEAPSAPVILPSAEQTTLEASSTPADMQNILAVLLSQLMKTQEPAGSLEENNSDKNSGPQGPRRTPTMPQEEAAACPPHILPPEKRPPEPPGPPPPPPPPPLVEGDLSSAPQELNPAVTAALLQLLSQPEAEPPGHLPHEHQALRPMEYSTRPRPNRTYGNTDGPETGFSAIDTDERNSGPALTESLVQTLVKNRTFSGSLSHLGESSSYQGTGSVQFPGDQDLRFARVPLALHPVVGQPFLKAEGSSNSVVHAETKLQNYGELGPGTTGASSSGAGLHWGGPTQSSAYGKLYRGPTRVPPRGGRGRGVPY
CDK12/CycK, sequence (O75909 whole entry partner): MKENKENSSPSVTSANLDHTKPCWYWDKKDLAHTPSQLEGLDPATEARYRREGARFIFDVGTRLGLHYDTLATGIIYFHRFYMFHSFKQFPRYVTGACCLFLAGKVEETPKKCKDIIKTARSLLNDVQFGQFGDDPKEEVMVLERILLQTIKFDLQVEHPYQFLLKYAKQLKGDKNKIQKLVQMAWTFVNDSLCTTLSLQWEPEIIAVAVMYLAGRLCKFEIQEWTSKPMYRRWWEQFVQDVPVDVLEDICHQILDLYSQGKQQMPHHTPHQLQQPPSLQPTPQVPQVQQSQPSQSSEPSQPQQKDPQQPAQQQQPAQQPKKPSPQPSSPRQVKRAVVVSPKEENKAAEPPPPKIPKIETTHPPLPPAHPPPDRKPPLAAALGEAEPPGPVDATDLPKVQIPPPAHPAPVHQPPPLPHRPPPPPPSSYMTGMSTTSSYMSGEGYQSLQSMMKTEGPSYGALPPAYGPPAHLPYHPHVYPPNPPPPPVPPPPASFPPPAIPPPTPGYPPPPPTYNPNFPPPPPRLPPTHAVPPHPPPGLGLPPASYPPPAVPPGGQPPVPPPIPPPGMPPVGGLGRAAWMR

With `CN(C)C/C=C/C(=O)N1CCC(C(=O)N2CCC(c3cc4c(-c5cnn6ncccc56)ccnc4[nH]3)CC2)CC1` [Example 66, (E)-4-(Dimethylamino)-1-(4-(4-(4-(pyrazolo[1,5-b]pyridazin-3-yl)-1H-pyrrolo[2,3-b]pyridin-2-yl)piperidine-1-carbonyl)piperidin-1-yl)but-2-en-1-one] the IC50 was less than 100 nM.

With `C=CC(=O)NCC1CCN(Cc2cc3c(-c4cnn5ncccc45)ccnc3[nH]2)C1` (stereo not drawn) [Example 199, N-((1-((4-(Pyrazolo[1,5-b]pyridazin-3-yl)-1H-pyrrolo[2,3-b]pyridin-2-yl)methyl)pyrrolidin-3-yl)methyl)acrylamide] the IC50 was 1000 to 30000 nM.

For `c1ccn2ncc(-c3ccnc4[nH]ccc34)c2c1` [Example 18, 4-(Pyrazolo[1,5-a]pyridin-3-yl)-1H-pyrrolo[2,3-b]pyridine], the IC50 was 1000 to 30000 nM.

Compound `C=CC(=O)N[C@@H]1CC[C@@H](C(=O)NCc2cc3c(-c4cnn5ncccc45)ccnc3[nH]2)C1` [Example 59, (1R,3R)-3-Acrylamido-N-((4-(pyrazolo[1,5-b]pyridazin-3-yl)-1H-pyrrolo[2,3-b]pyridin-2-yl)methyl)cyclopentane-1-carboxamide] has an IC50 of 1000 to 30000 nM.

`C=CC(=O)N1CCC[C@@H]1C(=O)NCc1cc2c(-c3cnn4ncccc34)ccnc2[nH]1` [Example 182, (R)-1-Acryloyl-N-((4-(pyrazolo[1,5-b]pyridazin-3-yl)-1H-pyrrolo[2,3-b]pyridin-2-yl)methyl)pyrrolidine-2-carboxamide] showed an IC50 of 1000 to 30000 nM.

`N#CCC(=O)N1CCC[C@H]1C(=O)NCCc1cc2c(-c3cnn4ncccc34)ccnc2[nH]1` [Example 201, (S)-1-(2-Cyanoacetyl)-N-(2-(4-(pyrazolo[1,5-b]pyridazin-3-yl)-1H-pyrrolo[2,3-b]pyridin-2-yl)ethyl)pyrrolidine-2-carboxamide] was tested, and the IC50 was 100 to 1000 nM.

`C#CC(=O)Nc1ccc(C(=O)N2CCC(c3cc4c(-c5cnn6ncccc56)ccnc4[nH]3)C2)cc1` (stereo not drawn) [Example 128, N-(4-(3-(4-(Pyrazolo[1,5-b]pyridazin-3-yl)-1H-pyrrolo[2,3-b]pyridin-2-yl)pyrrolidine-1-carbonyl)phenyl)propiolamide] was tested, and the IC50 was less than 100 nM.

`CC1(C)OCC(COc2cnn3ncc(-c4ccnc5[nH]ccc45)c3c2)O1` (stereo not drawn) [Example 25, 5-((2,2-Dimethyl-1,3-dioxolan-4-yl)methoxy)-3-(1H-pyrrolo[2,3-b]pyridin-4-yl)pyrazolo[1,5-b]pyridazine] gave an IC50 of 1000 to 30000 nM.

`CN1CCC(OCc2cc3c(-c4cnn5ncccc45)ccnc3[nH]2)CC1` [Example 167, 3-(2-(((1-Methylpiperidin-4-yl)oxy)methyl)-1H-pyrrolo[2,3-b]pyridin-4-yl)pyrazolo[1,5-b]pyridazine diformate] was tested, and the IC50 was 1000 to 30000 nM.

`COCCOc1cnn2ncc(-c3ccnc4[nH]ccc34)c2c1` [Example 24, 5-(2-Methoxyethoxy)-3-(1H-pyrrolo[2,3-b]pyridin-4-yl)pyrazolo[1,5-b]pyridazine] showed an IC50 of 1000 to 30000 nM.

`C=CC(=O)N[C@H]1CC[C@H](C(=O)NCc2cc3c(-c4cnn5ncccc45)ccnc3[nH]2)CC1` [Example 191, (1r,4r)-4-Acrylamido-N-((4-(pyrazolo[1,5-b]pyridazin-3-yl)-1H-pyrrolo[2,3-b]pyridin-2-yl)methyl)cyclohexane-1-carboxamide] was tested, and the IC50 was 1000 to 30000 nM.

Work on `C=CC(=O)N1CCC[C@H]1C(=O)NCCc1cc2c(-c3cnn4ncccc34)c(Cl)cnc2[nH]1` [Example 53, (S)-1-Acryloyl-N-(2-(5-chloro-4-(pyrazolo[1,5-b]pyridazin-3-yl)-1H-pyrrolo[2,3-b]pyridin-2-yl)ethyl)pyrrolidine-2-carboxamide] yielded an IC50 of less than 100 nM.

With `C=CC(=O)NC1(C(=O)NCCCc2cc3c(-c4cnn5ncccc45)ccnc3[nH]2)CC1` [Example 214, 1-Acrylamido-N-(3-(4-(pyrazolo[1,5-b]pyridazin-3-yl)-1H-pyrrolo[2,3-b]pyridin-2-yl)propyl)cyclopropane-1-carboxamide] the IC50 was less than 100 nM.

In the case of `C=CC(=O)N1CCC(C(=O)N2CCC(c3cc4c(-c5cnn6ncccc56)ccnc4[nH]3)C2)CC1` (stereo not drawn) [Example 143, 1-(4-(3-(4-(Pyrazolo[1,5-b]pyridazin-3-yl)-1H-pyrrolo[2,3-b]pyridin-2-yl)pyrrolidine-1-carbonyl)piperidin-1-yl)prop-2-en-1-one], the IC50 is reported as less than 100 nM.

Compound `c1cnn2ncc(-c3ccnc4[nH]c(C5CCNC5)cc34)c2c1` (stereo not drawn) [Example 122, 3-[2-(pyrrolidin-3-yl)-1H-pyrrolo[2,3-b]pyridine-4-yl)pyrazolo[1,5-b]pyridazine] has an IC50 of less than 100 nM.

Compound `C=CC(=O)N1CCC[C@@H]1C(=O)N(C)CCc1cc2c(-c3cnn4ncccc34)ccnc2[nH]1` [Example 47, (R)-1-Acryloyl-N-methyl-N-(2-(4-(pyrazolo[1,5-b]pyridazin-3-yl)-1H-pyrrolo[2,3-b]pyridin-2-yl)ethyl)pyrrolidine-2-carboxamide] has an IC50 of 1000 to 30000 nM.

Work on `C=CC(=O)N1CCC[C@H]1C(=O)N(CC)CCc1cc2c(-c3cnn4ncccc34)ccnc2[nH]1` [Example 50, (S)-1-Acryloyl-N-ethyl-N-(2-(4-(pyrazolo[1,5-b]pyridazin-3-yl)-1H-pyrrolo[2,3-b]pyridin-2-yl)ethyl)pyrrolidine-2-carboxamide] yielded an IC50 of 1000 to 30000 nM.

For `C=CC(=O)N1CCC[C@H]1C(=O)N[C@H]1C[C@@H](c2cc3c(-c4cnn5ncccc45)ccnc3[nH]2)C1` [Example 205, (S)-1-Acryloyl-N-((1 S,3R)-3-(4-(pyrazolo[1,5-b]pyridazin-3-yl)-1H-pyrrolo[2,3-b]pyridin-2-yl)cyclobutyl)pyrrolidine-2-carboxamide], the IC50 was less than 100 nM.

`CCC(=O)Nc1ccc(C(=O)NCc2cc3c(-c4cnn5ncccc45)ccnc3[nH]2)cc1` [Example 188, 4-Propionamido-N-((4-(pyrazolo[1,5-b]pyridazin-3-yl)-1H-pyrrolo[2,3-b]pyridin-2-yl)methyl)benzamide] showed an IC50 of 1000 to 30000 nM.

Compound `O=C(NCCc1cc2c(-c3cnn4ncccc34)ccnc2[nH]1)[C@@H]1CCCN1C(=O)CO` [Example 78, (S)-1-(2-Hydroxyacetyl)-N-(2-(4-(pyrazolo[1,5-b]pyridazin-3-yl)-1H-pyrrolo[2,3-b]pyridin-2-yl)ethyl)pyrrolidine-2-carboxamide] has an IC50 of 100 to 1000 nM.

`C=CC(=O)N1CCC[C@H]1C(=O)NCCCc1cc2c(-c3cnn4ncccc34)ccnc2[nH]1` [Example 216, (S)-1-Acryloyl-N-(3-(4-(pyrazolo[1,5-b]pyridazin-3-yl)-1H-pyrrolo[2,3-b]pyridin-2-yl)propyl)pyrrolidine-2-carboxamide] showed an IC50 of less than 100 nM.

Work on `CC(C)=C(C#N)C(=O)N1CCC[C@H]1C(=O)NCCc1cc2c(-c3cnn4ncccc34)ccnc2[nH]1` [Example 202, (S)-1-(2-Cyano-3-methylbut-2-enoyl)-N-(2-(4-(pyrazolo[1,5-b]pyridazin-3-yl)-1H-pyrrolo[2,3-b]pyridin-2-yl)ethyl)pyrrolidine-2-carboxamide] yielded an IC50 of 1000 to 30000 nM.

`c1cnc2ncc(-c3ccnc4[nH]ccc34)n2c1` [Example 29, 3-(1H-Pyrrolo[2,3-b]pyridin-4-yl)imidazo[1,2-a]pyrimidine] was tested, and the IC50 was 1000 to 30000 nM.

`C=CC(=O)N[C@H]1CC[C@@H](C(=O)NCc2cc3c(-c4cnn5ncccc45)ccnc3[nH]2)CC1` [Example 187, (1s,4s)-4-Acrylamido-N-((4-(pyrazolo[1,5-b]pyridazin-3-yl)-1H-pyrrolo[2,3-b]pyridin-2-yl)methyl)cyclohexane-1-carboxamide] showed an IC50 of 1000 to 30000 nM.
